5 compounds from patent US20220323406A1, “METHODS AND COMPOSITIONS FOR DIFFERENTIATING STEM CELLS” (Massachusetts Institute of Technology, priority 2019, published 2022) can be followed below.

Experiment [1] relates to ENR+CD organoids (ISC to Paneth cell differentiation). Kind of experiment: Primary screen: basal (non-stimulated) lysozyme secretion LYZ.NS, 2.5-D 384-well ENR+CD organoid differentiation. It is filed as cell-based, mouse. The source says: (§1) High-throughput screening.
Experiment [2] shares this test system. Kind of experiment: Primary screen: CCh-stimulated lysozyme secretion LYZ.S, 2.5-D 384-well ENR+CD organoid differentiation. It counts as cell-based, mouse. The note with it: primary screen.
Description: as §1

In a further experiment the test system is ENR+CD organoids. Description: Primary screen: ATP (CellTiter-Glo 3D, CTG) cell number/viability, 2.5-D 384-well ENR+CD organoids.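 On all read-outs here: compounds given at plating and again on day 3 over a 6-day differentiation from ENR+CV stem-cell-enriched precursors, ATP measured on day 6, plate median as control.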 Conditions: primary screen; for Z.CTG: standard z score. (ATP-based viability assays read luminescence as a measure of living cells.)
[3] abbreviates: 1st dose row of the treatment (0.08 uM by row order; dose not reprinted).
Where [4] appears, read: 2nd dose row of the treatment (0.40 uM by row order; dose not reprinted).
Where [5] appears, read: 3rd dose row of the treatment (2.00 uM by row order; dose not reprinted).
The mark [6] stands for this setting: 4th dose row of the treatment (10.00 uM by row order; dose not reprinted).
Where [7] appears, read: dose 0.08 uM, FC vs plate median.
Where [8] appears, read: dose 0.40 uM, FC vs plate median.
Setting [9] is: dose 2.00 uM, FC vs plate median.
The mark [10] stands for this setting: dose 10.00 uM, FC vs plate median.

Regarding `CC1(C)CCC(CN2CCN(c3ccc(C(=O)NS(=O)(=O)c4ccc(NCC5CCOCC5)c([N+](=O)[O-])c4)c(Oc4cnc5[nH]ccc5c4)c3)CC2)=C(c2ccc(Cl)cc2)C1` [ABT-199 (GDC-0199)], the “SSMD.LYZ.NS_Rep (strictly standardized mean difference)” value in experiment [1] (primary screen, 1st dose row of the treatment (0.08 uM by row order; dose not reprinted)) was −0.009; in experiment [1] (primary screen, 2nd dose row of the treatment (0.40 uM by row order; dose not reprinted)), −0.192; in experiment [1] (primary screen, 3rd dose row of the treatment (2.00 uM by row order; dose not reprinted)) it was −0.116; in experiment [1] (primary screen, 4th dose row of the treatment (10.00 uM by row order; dose not reprinted)), −0.810. The Dose.FC.LYZ.NS is recorded as −0.002 log2 fold change in experiment [1] (primary screen, dose 0.08 uM); −0.029 log2 fold change in experiment [1] (primary screen, dose 0.40 uM); −0.016 log2 fold change in experiment [1] (primary screen, dose 2.00 uM); −0.169 log2 fold change in experiment [1] (primary screen, dose 10.00 uM). In addition, the “Z.LYZ.NS (standard z score)” value is reported as −0.013 in experiment [1] (primary screen, dose 0.08 uM); −0.251 in experiment [1] (primary screen, dose 0.40 uM); −0.136 in experiment [1] (primary screen, dose 2.00 uM); −1.471 in experiment [1] (primary screen, dose 10.00 uM). Further, the “SSMD.LYZ.S_Rep (strictly standardized mean difference)” value is given as −0.260 in experiment [2] (setting [3]), 0.443 in experiment [2] (setting [4]), −0.368 in experiment [2] (setting [5]) and −1.131 in experiment [2] (setting [6]). Further, the “Z.LYZ.S (standard z score)” value is recorded as −0.285 in experiment [2] (setting [3]), 0.494 in experiment [2] (setting [4]), −0.404 in experiment [2] (setting [5]) and −1.890 in experiment [2] (setting [6]). Moreover, the Dose.FC.LYZ.S is −0.044 log2 fold change in experiment [2] (dose 0.08 uM), 0.076 log2 fold change in experiment [2] (dose 0.40 uM), −0.063 log2 fold change in experiment [2] (dose 2.00 uM) and −0.292 log2 fold change in experiment [2] (dose 10.00 uM). Further, the “SSMD.CTG.Rep (strictly standardized mean difference)” value with ENR+CD organoids (setting [3]) was 0.051; in the experiment with ENR+CD organoids (setting [4]) it was 0.111; in the experiment on ENR+CD organoids (setting [5]), −0.377; in the experiment on ENR+CD organoids (setting [6]) it was −1.402. Further, the Dose.FC.CTG in the experiment with ENR+CD organoids (dose 0.08 uM) was 0.019 log2 fold change; in the experiment with ENR+CD organoids (dose 0.40 uM), 0.038 log2 fold change; with ENR+CD organoids (dose 2.00 uM), −0.278 log2 fold change; in the experiment with ENR+CD organoids (dose 10.00 uM), −0.519 log2 fold change. The “Z.CTG (standard z score)” value is recorded as 0.045 in the experiment on ENR+CD organoids (dose 0.08 uM), 0.090 with ENR+CD organoids (dose 0.40 uM), −0.665 in the experiment with ENR+CD organoids (dose 2.00 uM) and −1.240 in the experiment on ENR+CD organoids (dose 10.00 uM).
On to `Cl.N[C@@H]1C[C@H]1c1ccccc1` (racemic) [Tranylcypromine (2-PCPA) HCl], for which the Dose.FC.LYZ.NS in experiment [1] (primary screen, dose 0.08 uM) is given as 0.033 log2 fold change; in experiment [1] (primary screen, dose 0.40 uM) it was −0.049 log2 fold change; in experiment [1] (primary screen, dose 2.00 uM), 0.049 log2 fold change; in experiment [1] (primary screen, dose 10.00 uM), −0.045 log2 fold change. For the same compound, the “Z.LYZ.NS (standard z score)” value in experiment [1] (primary screen, dose 0.08 uM) was 0.285; in experiment [1] (primary screen, dose 0.40 uM), −0.426; in experiment [1] (primary screen, dose 2.00 uM), 0.423; in experiment [1] (primary screen, dose 10.00 uM) it was −0.389. Besides, the Dose.FC.LYZ.S in experiment [2] (dose 0.08 uM) was 0.050 log2 fold change; in experiment [2] (dose 0.40 uM), −0.037 log2 fold change; in experiment [2] (dose 2.00 uM) it was 0.036 log2 fold change; in experiment [2] (dose 10.00 uM) it was −0.096 log2 fold change. The Dose.FC.CTG in the experiment on ENR+CD organoids (dose 0.08 uM) is reported as −0.064 log2 fold change; with ENR+CD organoids (dose 0.40 uM), 0.062 log2 fold change; with ENR+CD organoids (dose 2.00 uM), 0.053 log2 fold change; with ENR+CD organoids (dose 10.00 uM), −0.533 log2 fold change. Further, the “Z.CTG (standard z score)” value with ENR+CD organoids (dose 0.08 uM) was −0.153; in the experiment with ENR+CD organoids (dose 0.40 uM), 0.148; in the experiment with ENR+CD organoids (dose 2.00 uM), 0.128; with ENR+CD organoids (dose 10.00 uM), −1.274.
With `Cc1ccc(NC(=O)c2ccc(CN3CCN(C)CC3)cc2)cc1Nc1nccc(-c2cccnc2)n1` [Imatinib (STI571)], the “Dose.FC.LYZ.NS (log2 fold change)” value in experiment [1] (primary screen, dose 0.08 uM) is given as 0.033; in experiment [1] (primary screen, dose 0.40 uM), 0.012; in experiment [1] (primary screen, dose 2.00 uM), 0.025; in experiment [1] (primary screen, dose 10.00 uM) it was −0.038. In addition, the “Z.LYZ.NS (standard z score)” value in experiment [1] (primary screen, dose 0.08 uM) is on record as 0.284; in experiment [1] (primary screen, dose 0.40 uM), 0.104; in experiment [1] (primary screen, dose 2.00 uM), 0.217; in experiment [1] (primary screen, dose 10.00 uM), −0.333. Further, the “Dose.FC.LYZ.S (log2 fold change)” value in experiment [2] (dose 0.08 uM) is on record as 0.000; in experiment [2] (dose 0.40 uM) it was 0.038; in experiment [2] (dose 2.00 uM), −0.001; in experiment [2] (dose 10.00 uM), −0.037. Besides, the “Dose.FC.CTG (log2 fold change)” value with ENR+CD organoids (dose 0.08 uM) is −0.150; with ENR+CD organoids (dose 0.40 uM), 0.079; in the experiment on ENR+CD organoids (dose 2.00 uM), 0.056; with ENR+CD organoids (dose 10.00 uM) it was −0.034. Besides, the “Z.CTG (standard z score)” value in the experiment with ENR+CD organoids (dose 0.08 uM) is −0.357; in the experiment on ENR+CD organoids (dose 0.40 uM), 0.188; with ENR+CD organoids (dose 2.00 uM) it was 0.135; in the experiment on ENR+CD organoids (dose 10.00 uM), −0.082.
Take `O=C(O)Cn1nnc(-c2cc(N3CCC(Oc4cc(F)ccc4Br)CC3)no2)n1` [MK-8245]: the Z.LYZ.NS is 0.200 in experiment [1] (primary screen, dose 0.08 uM, standard z score); 0.273 in experiment [1] (primary screen, dose 0.40 uM, standard z score); −0.315 in experiment [1] (primary screen, dose 2.00 uM, standard z score); −0.670 in experiment [1] (primary screen, dose 10.00 uM, standard z score). In addition, the Dose.FC.LYZ.NS in experiment [1] (primary screen; dose 0.08 uM; FC vs plate median) is given as 0.023 log2 fold change; in experiment [1] (primary screen; dose 0.40 uM; FC vs plate median), 0.031 log2 fold change; in experiment [1] (primary screen; dose 2.00 uM; FC vs plate median), −0.036 log2 fold change; in experiment [1] (primary screen; dose 10.00 uM; FC vs plate median), −0.077 log2 fold change. Besides, the Dose.FC.LYZ.S was 0.069 log2 fold change in experiment [2] (setting [7]), 0.185 log2 fold change in experiment [2] (setting [8]), −0.062 log2 fold change in experiment [2] (setting [9]) and −0.123 log2 fold change in experiment [2] (setting [10]). Besides, the Dose.FC.CTG with ENR+CD organoids (setting [7]) is 0.156 log2 fold change; in the experiment on ENR+CD organoids (setting [8]), −0.113 log2 fold change; in the experiment with ENR+CD organoids (setting [9]), −0.021 log2 fold change; with ENR+CD organoids (setting [10]), −0.263 log2 fold change.
As for `CC(C)Oc1ccc(-c2cnc3c(-c4ccnc5ccccc45)cnn3c2)cc1` [DMH1], the Dose.FC.LYZ.NS in experiment [1] (primary screen, dose 0.08 uM) is listed as 0.018 log2 fold change; in experiment [1] (primary screen, dose 0.40 uM), 0.026 log2 fold change; in experiment [1] (primary screen, dose 2.00 uM) it was 0.014 log2 fold change; in experiment [1] (primary screen, dose 10.00 uM) it was −0.075 log2 fold change. The Z.LYZ.NS is recorded as 0.155 in experiment [1] (primary screen, standard z score, dose 0.08 uM); 0.231 in experiment [1] (primary screen, standard z score, dose 0.40 uM); 0.124 in experiment [1] (primary screen, standard z score, dose 2.00 uM); −0.657 in experiment [1] (primary screen, standard z score, dose 10.00 uM). Moreover, the Dose.FC.LYZ.S in experiment [2] (dose 0.08 uM) is on record as 0.078 log2 fold change; in experiment [2] (dose 0.40 uM) it was 0.054 log2 fold change; in experiment [2] (dose 2.00 uM), 0.035 log2 fold change; in experiment [2] (dose 10.00 uM), −0.092 log2 fold change. Also, the Dose.FC.CTG with ENR+CD organoids (dose 0.08 uM) is recorded as −0.031 log2 fold change; in the experiment with ENR+CD organoids (dose 0.40 uM) it was −0.079 log2 fold change; with ENR+CD organoids (dose 2.00 uM) it was −0.002 log2 fold change; in the experiment with ENR+CD organoids (dose 10.00 uM), −0.001 log2 fold change. For the same compound, the Z.CTG with ENR+CD organoids (dose 0.08 uM) is given as −0.075; with ENR+CD organoids (dose 0.40 uM) it was −0.188; in the experiment on ENR+CD organoids (dose 2.00 uM), −0.004; in the experiment on ENR+CD organoids (dose 10.00 uM), −0.003.
